We go through two compounds from patent US5945566A, “Amino compounds of 6,7,8,9-tetrahydro-cyclopenta[a]naphthalene and of 2,3-dihydro-cyclopenta[e]indene” (Adir et Compagnie, priority 1997, dated 1999).

In experiment [1] the target is T1, human dopamine D3 receptor (Homo sapiens, UniProt P35462).
T1 construct: expressed in transfected cells; membranes
The experiment is described as follows: human D3 receptor binding ([125I]-iodosulpride, CHO membranes). As for the experimental part:
(§1) .check mark. In vitro: human D2 and D3 receptor binding study
(§2) CHO (Chinese Hamster Ovary) cells were transfected in a stable manner by the gene that codes for the human dopamine D2 or D3 receptor according to methods known from the literature. The native cells are deficient in the enzyme DHFR (DiHydroFolate Reductase). The cells are cultured in an incubator at 37° C. in a humid atmosphere of 5% CO2 /95% air. The transfections are carried out using Lipofectin (Gibco). The CHO cells, co-transfected with the human D2 receptor and the gene for resistance to phleomycin, were selected for their resistance to the presence of that antibiotic in the culture medium. The cells transfected with the human D3 receptor were selected in a medium containing no hypoxanthine/thymidine in the presence of methotrexate. […]
(§3) The ranges of concentration of each compound include at least seven points determined in triplicate, each experiment being repeated at least twice.
(§4) The incubation, which lasts for thirty minutes at 30° C., is terminated by means of rapid filtration over a Brandle apparatus, followed by three consecutive rinses with Tris-HCl buffer, pH 7.4, containing 120 mM NaCl. The filters recovered are then counted using a gamma counter. […]

The target in experiment [2] is T2, human dopamine D2 receptor (Homo sapiens, UniProt P14416).
T2 construct: expressed in transfected cells; membranes
T2 sequence (P14416 whole entry): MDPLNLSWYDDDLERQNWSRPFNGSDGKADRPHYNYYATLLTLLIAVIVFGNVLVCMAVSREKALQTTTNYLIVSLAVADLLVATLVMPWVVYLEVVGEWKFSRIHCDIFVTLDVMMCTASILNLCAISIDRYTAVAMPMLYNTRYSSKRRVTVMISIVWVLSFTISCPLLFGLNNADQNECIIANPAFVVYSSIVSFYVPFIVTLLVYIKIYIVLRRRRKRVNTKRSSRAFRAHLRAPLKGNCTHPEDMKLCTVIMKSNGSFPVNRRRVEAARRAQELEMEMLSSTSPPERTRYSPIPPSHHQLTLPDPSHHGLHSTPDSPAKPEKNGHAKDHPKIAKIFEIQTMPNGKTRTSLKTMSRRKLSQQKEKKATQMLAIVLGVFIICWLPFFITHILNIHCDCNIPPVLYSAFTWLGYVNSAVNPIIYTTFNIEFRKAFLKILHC
The experiment can be described thus: human D2 receptor binding ([125I]-iodosulpride, CHO membranes). The following applies: dissociation constant of radioligand. As to the method:
as §1, §2, §3, §4

T1 sequence (P35462 whole entry): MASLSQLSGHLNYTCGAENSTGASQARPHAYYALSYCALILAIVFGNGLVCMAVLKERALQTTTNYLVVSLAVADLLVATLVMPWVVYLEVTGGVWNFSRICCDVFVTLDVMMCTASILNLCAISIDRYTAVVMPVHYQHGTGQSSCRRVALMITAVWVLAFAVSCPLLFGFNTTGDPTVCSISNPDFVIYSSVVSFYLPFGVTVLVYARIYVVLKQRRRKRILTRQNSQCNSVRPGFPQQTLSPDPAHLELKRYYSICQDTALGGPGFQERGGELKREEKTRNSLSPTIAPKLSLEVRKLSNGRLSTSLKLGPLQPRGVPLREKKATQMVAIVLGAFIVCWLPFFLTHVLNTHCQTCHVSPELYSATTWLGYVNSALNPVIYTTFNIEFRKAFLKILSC

As usually defined, the Ki is a dissociation constant, usually derived from enzyme kinetics or from competition with a known ligand. A low value points to higher affinity. In experiment [1] ([125I]-iodosulpride 0.2 nM, CHO membranes, pKi = -logKi), `CCCN(CCC)C1CCc2c(ccc3c2C(=O)CC3)C1` (racemic) [Example 2, (7R,S)-7-(N,N-Dipropylamino)-6,7,8,9-tetrahydro-cyclopenta[a]-naphthalen-1-one] showed a Ki of 10 nM.

As usually defined, the Kd is the concentration at which binding is half-saturated. Low values mean higher affinity, high ones lower affinity. For the compound [^125 I]-iodosulpride, the Kd turned out to be 0.5 nM in experiment [2] and 1.31 nM in experiment [1] (dissociation constant of radioligand).
